For assay [1], the system named is 3T3-L1 preadipocytes. Nature of the assay: Enhancement of 3T3-L1 preadipocyte differentiation in insulin differentiation model (AdipoRed staining / triglyceride). Type of assay: cell-based. The conditions noted are these: for Oil Red assay (% of control): insulin model, 3T3-L1 differentiation. Here is the method: Preadipocytes were prepared according to the method described by Wald et al., (2007, “The small molecule harmine is an antidiabetic cell-type-specific regulator of PPARγ expression.” Cell Metabolism, 5(5): 357-370). Preadipocytes were cultured in DMEM (Dulbecco's Modified Eagle's Medium-high glucose, Sigma D-7777) containing 10% of fetal bovine serum (FBS) and incubated at 37° C. in a 5% CO2 incubator.
Before the differentiation induction experiments, the cells were plated into either 96- or 24-well plates (the concentration of cells in each well was about 2×10^4/cm^2). The plates were incubated for about two days to allow the cells to proliferate to confluence, and then maintained for another two days. The medium was changed to different differentiation media according to different experiments. The day of switching to differentiation medium was designated as day zero.
The differentiation medium used in insulin differentiation model was DMEM with 10% FBS comprising 10 μg/ml of insulin. Differentiation media with various concentrations of Compound 1 were added to each well of the 24- or 96-well 3T3-L1 preadipocyte plates (the final concentration of Compound 1 in each well was 2 μg/ml, 5 μg/ml, 10 μg/ml, and 20 μg/ml, respectively). The control group was the culture with only the differentiation medium and no sample. The cultures were incubated at 37° C. in a 5% CO2 incubator for seven days (during the period, the differentiation medium and sample were replaced with fresh ones twice), and then the medium was replaced by DMEM with 10% FBS. The cultures were maintained until day 9 or day 10 . The cells of the experiment groups and control groups at day 9 or day 10 were stained with AdipoRed and the concentrations of triglyceride were analyzed.
The 96-well plates were rinsed with PBS, and 200 μl of PBS and 5 μl of AdipoRed reagent (Lonze Walkersville, Inc., Walkersville, Md., USA, Catalog No. PT-7009) were added to each well. After 10 to 15 minutes, the plates were read with a spectrofluorometer (Infinite M200) set at an excitation wavelength of 485 nm and an emission wavelength of 572 nm. The fluorescent data of the experiment group was divided by the fluorescent data of the control group to obtain a percentage of induction activity.
The 24-well plates were rinsed with PBS, and the cells were washed off with 0.1 ml of 1% Triton X 100 per well. The cells were then frozen, thawed and centrifuged (10,000 rpm/5 min) and the supernatant was collected. An aliquot of 0.05 ml of the supernatant was analyzed using Triglycerol assay Kit (Audit Diagnostics, Ltd.).
The protein amounts were analyzed using Bio-Rad Dc Protein assay reagent (Bio-Rad). […]

Assay [2] has as its target T1, PPARγ-LBD (Homo sapiens, UniProt P37231).
T1 construct: 10 μL 4× PPARγ-LBD/Tb-anti-GST Ab; purchased Invitrogen PV4894
T1 sequence (P37231 238-503 limits assumed): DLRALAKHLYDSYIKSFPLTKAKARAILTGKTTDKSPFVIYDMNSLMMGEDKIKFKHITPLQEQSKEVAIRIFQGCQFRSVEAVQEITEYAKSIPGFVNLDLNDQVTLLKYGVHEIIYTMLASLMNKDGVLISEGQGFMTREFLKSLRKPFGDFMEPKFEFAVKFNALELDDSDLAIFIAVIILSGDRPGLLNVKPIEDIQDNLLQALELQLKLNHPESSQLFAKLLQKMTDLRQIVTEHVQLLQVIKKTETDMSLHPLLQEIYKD
Briefly: LanthaScreen TR-FRET PPAR Competitive Binding Assay. The conditions noted are these: tested at 10-160 μg/ml, 2 hours at room temperature. As to the method:
10, 20, 40, 80 and 160 μg/ml of Compound 1 were tested in the ligand binding assay conducted following the manuals described in LanthaScreen TR-FRET PPAR Competitive Binding Assay kits (Invitrogen New York, N.Y. Catalog no. PV4894). In a 96-well microtiter plate, the reagents were pipetted into each well in the following order: 20 μL 2× Test Compound, 10 μL 4× Fluormone™ Pan-PPAR Green and 10 μL 4× PPARγ-LBD/Tb-anti-GST Ab in a total assay volume of 40 μl/well. The reagents were gently mixed by placing the microtiter plate on an orbital plate shaker for 30 seconds. The samples were incubated at room temperature (20-25° C.) for 2 hours in the dark allowing the binding of the samples to reach equilibrium. The fluorescent emission signal of each well was measured at 495 nm and 520 nm with an Absorbance Microplate Reader (Spectra Max M5 from Molecular Devices LLC).

Assay [3] concerns 3T3-L1 cells. Briefly: Quantitative real-time PCR of adipocyte differentiation related gene expression. Type of assay: cell-based. As to the method:
The upstream genes that regulate adipocyte differentiation have been previously reported (F. M. Gregoire, C. M. Smas and H. S. Sul, Understanding adipocyte differentiation. Physiological Reviews, 783 (1998), pp. 783-809.) Among them, aP2, LPL, PPARγ, adiponectin, GLUT4, GLUT1, and C/EBPα were assayed to monitor the regulation of 3T3-L1 preadipocyte differentiation. The housekeeping genes of β-actin and Glyceraldehyde 3-phosphate dehydrogenase (GADPH) were used as control. “do” represents the conditions of the 3T3-L1 preadipocytes before adding inducing agents. In the “NC” groups, the 3T3-L1 preadipocytes were not treated with any inducing agent. Both “do” and “NC” groups were the control groups. In the groups of “insulin,” “E,” and “troglitazone,” the 3T3-L1 preadipocytes were induced with insulin, Compound 1 and insulin, and troglitazone, respectively.
After culturing the 3T3-L1 cells for 9 days, insulin, Compound 1 and insulin, and troglitazone were added to the medium. The cells were further cultivated, and the samples were collected on day 4 (early adipocyte differentiation stage), day 7 (middle stage) and day 9 (late stage) for the following assays.
Total RNA was extracted from 3T3-L1 cells using TRIZOL reagent according to the manufacturer's instructions (GIBCO 15596-026; Molecular Research Center, Inc). 4 μg of total RNA from each sample were reverse-transcribed to cDNA according to the protocol of the reverse transcript system [RevertAid H Minus First Strand cDNA Synthesis Kit (Fementas K1632)] with the oligo (dT)18 primers. A TaqMan One-Step RT-PCR Master Mix reagent kit and inventory primer and probes (Applied Biosystems, Foster, Calif.) were applied for the quantitative real-time PCR followed by a TaqMan gene expression assay. The sequences aP2 (Mm00445878_ml), LPL (Mm00434770_ml), PPARγ (Mm01184322_ml), adiponectin (Mm00456425_ml), GLUT4 (Mm01245502_ml), GLUT1 (Mm01192270_ml), C/EBPα (Mm01265914_sl), C/EBPδ (Mm00786711_sl), β-actin (Mm01205647_gl) and GADPH (Mm99999915_gl) were amplified in the PCR. Levels of mRNAs for housekeeping genes (β-actin and GADPH) were also measured by the real-time PCR. After cDNA synthesis, the quantitative real-time PCR was performed with the ABI Prism 7300 instrument (Applied Biosystems, Foster City, Calif., USA) according to the manufacturer's protocol. The PCR conditions were 1 cycle of 50 ° C. for 2 min, then 95 ° C. for 10 min, followed by 40 cycles of 95 ° C. for 15 seconds and 60 ° C. for 1 min. The quantification was performed in duplicate and the experiments were repeated independently three times.
A general note: Quantitative PCR measures a nucleic acid by following its amplification.

The mark [4] stands for this setting: day 4 (early stage), Compound 1 and insulin vs insulin group.
Where [5] appears, read: day 7 (middle stage), Compound 1 and insulin vs insulin group.
The mark [6] stands for this setting: day 9 (late stage), Compound 1 and insulin vs insulin group.
Where [7] appears, read: early, middle and late adipocyte differentiation stages.

Take “rel-(1S,7aR,3aR)-1-Hexanoyl-5,13-dimethyl-6-(2-oxopentyl)-7a,7-dihydrobenzofuran-2,4-dione [Compound 1]”: in assay [1] (2 μg/ml), the “Oil Red assay (% of control)” value is 127 ± 4 % of control. Moreover, the “Oil Red assay (% of control)” value in assay [1] (5 μg/ml) is on record as 140 ± 5 % of control. Further, the “Oil Red assay (% of control)” value in assay [1] (10 μg/ml) is given as 148 ± 8 % of control. For the same substance, in assay [1] (2, 5 and 10 μg/ml vs control culture (insulin only), FIG. 4), the “triglyceride droplets in differentiated adipocytes, inverted microscope” value was “more triglyceride droplets than the control culture”. Also, the “PPARγ binding IC50” value in assay [2] turned out to be 68 ± 21 µg/mL. Also, in assay [3] (setting [4]), the “expression of C/EBPα, increase compared to insulin group” value is given as “about 50%”; the “expression of GluT1 relative to insulin group” value was determined as 0.6 fold; the “expression of PPARγ, increase compared to insulin group” value is “about 50%”; the “expression of adiponectin, increase compared to insulin group” value was “about 50%”. In assay [3] (setting [5]), the “expression of GluT1 relative to insulin group” value is listed as 0.3 fold, the “expression of LPL relative to insulin group” value worked out at 0.3 fold, the “expression of PPARγ relative to insulin group” value was 1.8 fold and the “expression of aP2 relative to insulin group” value came to 0.3 fold. For the same substance, the “expression of GluT1 relative to insulin control” value in assay [3] (day 9 (late stage), Compound 1 and insulin vs insulin control) came to 0.6 fold. Also, in assay [3] (setting [6]), the “expression of C/EBPα relative to insulin group” value stood at 1.59 folds, the “expression of PPARγ relative to insulin group” value was 1.35 folds and the “expression of adiponectin relative to insulin group” value amounted to 1.49 folds. Moreover, in assay [3] (setting [7]), the “effect on the expression of aP2, LPL, adiponectin, GLUT4, and GLUT1” value is on record as “little effect”; the “effect on the expressions of PPARγ and C/EBPα” value is “can stimulate the expressions of PPARγ and C/EBPα”.

The record behind these values is patent publication US9771342B2, “Monascuspurpurones, preparation process thereof, and uses of the monascuspurpurones” (Food Industry Research and Development Institute, priority 2010, dated 2017).
